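Results reflect a 48-hour exposure of cells in 96-well plates to compound at five concentrations. TGI: total growth inhibition.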
Key:
Assay in all cases: NCI tumour cell line growth inhibition, 48 h
[1] = system: 786-0 renal
[2] = system: COLO 205 colon
[3] = system: HCT-116 colon
[4] = system: OVCAR-4 ovarian
[5] = system: CCRF-CEM leukemia
[6] = system: MOLT-4 leukemia
[7] = system: KM12 colon
[8] = system: NCI-H23 lung
[9] = system: K-562 leukemia
[10] = system: OVCAR-8 ovarian
[11] = system: PC-3 prostate
[12] = system: RXF 393 renal
[13] = system: HT29 colon
[14] = system: TK-10 renal
[15] = system: BT-549 breast
[16] = system: SK-MEL-2 melanoma
[17] = system: SK-MEL-5 melanoma
[18] = system: HS 578T breast
[19] = system: MCF7 breast
[20] = system: CAKI-1 renal
[21] = system: SK-MEL-28 melanoma
[22] = system: A498 renal
[23] = system: OVCAR-5 ovarian
[24] = system: M14 melanoma
[25] = system: ACHN renal
[26] = system: SR leukemia
[27] = system: A549 NSCLC
[28] = system: SF-268 CNS
[29] = system: SW-620 colon
[30] = system: HCC-2998 colon
[31] = system: DU-145 prostate
[32] = system: HL-60(TB) leukemia
[33] = system: NCI-H460 lung
[34] = system: IGROV1 ovarian
[35] = system: LOX IMVI melanoma
[36] = system: MALME-3M melanoma
[37] = system: SN12C renal
[38] = system: EKVX NSCLC
[39] = system: T-47D breast
[40] = system: HOP-92 NSCLC
[41] = system: NCI/ADR-RES ovarian
[42] = system: UO-31 renal
[43] = system: HOP-62 NSCLC
[44] = system: NCI-H522 lung
[45] = system: MDA-N
[46] = system: UACC-257 melanoma
[47] = system: SNB-19 CNS
[48] = system: UACC-62 melanoma
[49] = system: RPMI-8226 leukemia
[50] = system: OVCAR-3 ovarian
[51] = system: U251 CNS
[52] = system: HCT-15 colon
[53] = system: SF-539 CNS
[54] = system: SF-295 CNS
[55] = system: MDA-MB-435
[56] = system: SNB-75 CNS
[57] = system: SK-OV-3 ovarian
[58] = system: MDA-MB-231 breast
[59] = system: NCI-H226 lung

In the case of `CC[C@@]1(C)CCC2c3ccc(O)cc3CC[C@H]2C1C` (some centres undefined), the TGI [1] is reported as 29.8 µM, the TGI [2] is reported as 35.1 µM and the TGI [3] is reported as 31.9 µM. The TGI [4] was 35.7 µM, the TGI [5] was 33.4 µM and the TGI [6] was 32.5 µM. It also gave a TGI [7] of 36.7 µM, a TGI [8] of 36.2 µM and a TGI [9] of 23.3 µM. The TGI [10] was 33.8 µM, the TGI [11] was 34 µM and the TGI [12] was 26 µM. The TGI [13] was 34.1 µM, the TGI [14] was 33.3 µM and the TGI [15] was 33.8 µM. The TGI [16] was 32.8 µM, the TGI [17] was 30.7 µM and the TGI [18] was 35.5 µM. The TGI [19] was 30.3 µM, the TGI [20] was 35.7 µM and the TGI [21] was 32 µM. For the same compound, the TGI [22] was 34 µM, the TGI [23] was 33.3 µM and the TGI [24] was 30.3 µM. The TGI [25] was 32.7 µM, the TGI [26] was 31.6 µM and the TGI [27] was 33.6 µM. It also gave a TGI [28] of 30.1 µM, a TGI [29] of 32.4 µM and a TGI [30] of 27.1 µM. The TGI [31] was 30.4 µM, the TGI [32] was 29 µM and the TGI [33] was 40.6 µM. It also gave a TGI [34] of 38.1 µM, a TGI [35] of 31.9 µM and a TGI [36] of 30.5 µM. The TGI [37] was 34.3 µM, the TGI [38] was 34 µM and the TGI [39] was 39.3 µM. It also gave a TGI [40] of 19.5 µM, a TGI [41] of 35.7 µM and a TGI [42] of 30.4 µM. It also gave a TGI [43] of 33 µM, a TGI [44] of 36.1 µM and a TGI [45] of 25.8 µM. It also gave a TGI [46] of 29.3 µM, a TGI [47] of 32.1 µM and a TGI [48] of 28.4 µM. It also gave a TGI [49] of 39.5 µM, a TGI [50] of 37 µM and a TGI [51] of 30.9 µM. It also gave a TGI [52] of 31.4 µM, a TGI [53] of 35.4 µM and a TGI [54] of 34.6 µM. For the same compound, the TGI [55] was 30.2 µM and the TGI [56] was 37.2 µM.

Work on `NCCCC[C@H](N)C(=O)Nc1ccc(-c2nc3ccccc3s2)cc1` yielded a TGI [1] of 32.9 µM, a TGI [57] of 39.2 µM and a TGI [2] of 33.6 µM. The TGI [3] was 33 µM, the TGI [4] was greater than 100 µM and the TGI [5] was 23.6 µM. It also gave a TGI [6] of 31.2 µM, a TGI [7] of 34.9 µM and a TGI [8] of 67.7 µM. The TGI [9] was 36.3 µM, the TGI [10] was 40.1 µM and the TGI [11] was greater than 100 µM. It also gave a TGI [12] greater than 100 µM, a TGI [13] of 30.1 µM and a TGI [58] of 37.6 µM. It also gave a TGI [14] greater than 100 µM, a TGI [15] of 84.9 µM and a TGI [16] greater than 100 µM. It also gave a TGI [17] of 94.4 µM, a TGI [18] of 47.6 µM and a TGI [20] greater than 100 µM. The TGI [21] was 33.8 µM, the TGI [22] was 72.9 µM and the TGI [23] was 33.2 µM. The TGI [24] was 25.1 µM, the TGI [25] was 55 µM and the TGI [26] was 36.2 µM. The TGI [27] was greater than 100 µM, the TGI [28] was 55.6 µM and the TGI [29] was 30.6 µM. For the same compound, the TGI [30] was 81.5 µM, the TGI [31] was 49.1 µM and the TGI [33] was 34.9 µM. For the same compound, the TGI [34] was 31.5 µM, the TGI [35] was 72 µM and the TGI [36] was 34.9 µM. It also gave a TGI [37] of 74.3 µM, a TGI [38] of 23.9 µM and a TGI [39] greater than 100 µM. It also gave a TGI [40] greater than 100 µM, a TGI [41] of 59.7 µM and a TGI [42] of 26 µM. It also gave a TGI [43] of 62 µM, a TGI [44] of 33.9 µM and a TGI [45] of 29 µM. For the same compound, the TGI [46] was greater than 100 µM, the TGI [47] was 32.3 µM and the TGI [48] was 59.7 µM. For the same compound, the TGI [50] was 37.2 µM, the TGI [51] was 29.4 µM and the TGI [52] was 33.7 µM. It also gave a TGI [59] of 71.1 µM, a TGI [54] of 31 µM and a TGI [55] of 35.1 µM. For the same compound, the TGI [56] was 35.2 µM.

`COc1c2ccoc2c(OC)c2oc(=O)ccc12` was tested, and the TGI [1] was greater than 100 µM, the TGI [2] was greater than 100 µM and the TGI [3] was greater than 100 µM. It also gave a TGI [4] greater than 100 µM, a TGI [5] greater than 100 µM and a TGI [6] greater than 100 µM. The TGI [7] was greater than 100 µM, the TGI [8] was greater than 100 µM and the TGI [9] was greater than 100 µM. The TGI [10] was greater than 100 µM, the TGI [11] was greater than 100 µM and the TGI [12] was greater than 100 µM. It also gave a TGI [13] greater than 100 µM, a TGI [58] greater than 100 µM and a TGI [14] greater than 100 µM. It also gave a TGI [15] greater than 100 µM, a TGI [17] greater than 100 µM and a TGI [18] greater than 100 µM. For the same compound, the TGI [19] was greater than 100 µM, the TGI [20] was greater than 100 µM and the TGI [21] was greater than 100 µM. For the same compound, the TGI [22] was greater than 100 µM, the TGI [23] was greater than 100 µM and the TGI [24] was greater than 100 µM. For the same compound, the TGI [25] was greater than 100 µM, the TGI [26] was greater than 100 µM and the TGI [27] was greater than 100 µM. The TGI [28] was greater than 100 µM, the TGI [29] was greater than 100 µM and the TGI [30] was greater than 100 µM. The TGI [31] was greater than 100 µM, the TGI [32] was greater than 100 µM and the TGI [33] was greater than 100 µM. The TGI [34] was greater than 100 µM, the TGI [35] was greater than 100 µM and the TGI [37] was greater than 100 µM. It also gave a TGI [38] greater than 100 µM, a TGI [39] greater than 100 µM and a TGI [41] greater than 100 µM. It also gave a TGI [42] greater than 100 µM, a TGI [43] greater than 100 µM and a TGI [44] greater than 100 µM. It also gave a TGI [45] greater than 100 µM, a TGI [46] greater than 100 µM and a TGI [47] greater than 100 µM. For the same compound, the TGI [48] was greater than 100 µM, the TGI [49] was greater than 100 µM and the TGI [50] was greater than 100 µM. It also gave a TGI [51] greater than 100 µM, a TGI [52] greater than 100 µM and a TGI [59] greater than 100 µM. The TGI [53] was greater than 100 µM, the TGI [54] was greater than 100 µM and the TGI [55] was greater than 100 µM. For the same compound, the TGI [56] was 63.6 µM.

In the case of `CCC(=O)Nc1ccc(NC(C#N)c2cccc(Oc3ccccc3)c2)cc1` (centres undefined), the TGI [1] is reported as greater than 100 µM, the TGI [57] is reported as greater than 100 µM and the TGI [2] is reported as greater than 100 µM. The TGI [3] was greater than 100 µM, the TGI [4] was greater than 100 µM and the TGI [5] was greater than 100 µM. It also gave a TGI [6] of 36 µM, a TGI [7] greater than 100 µM and a TGI [8] greater than 100 µM. For the same compound, the TGI [9] was greater than 100 µM, the TGI [10] was 73.4 µM and the TGI [11] was greater than 100 µM. It also gave a TGI [12] greater than 100 µM, a TGI [13] greater than 100 µM and a TGI [15] greater than 100 µM. For the same compound, the TGI [16] was 94.6 µM, the TGI [17] was 48.1 µM and the TGI [18] was greater than 100 µM. The TGI [19] was greater than 100 µM, the TGI [20] was greater than 100 µM and the TGI [21] was greater than 100 µM. It also gave a TGI [22] greater than 100 µM, a TGI [23] greater than 100 µM and a TGI [24] greater than 100 µM. For the same compound, the TGI [25] was greater than 100 µM, the TGI [26] was 55 µM and the TGI [27] was greater than 100 µM. It also gave a TGI [28] greater than 100 µM, a TGI [29] greater than 100 µM and a TGI [31] greater than 100 µM. It also gave a TGI [32] of 46.8 µM, a TGI [34] greater than 100 µM and a TGI [35] of 47 µM. The TGI [36] was 94.2 µM, the TGI [37] was greater than 100 µM and the TGI [38] was greater than 100 µM. It also gave a TGI [39] greater than 100 µM, a TGI [40] greater than 100 µM and a TGI [41] greater than 100 µM. It also gave a TGI [42] greater than 100 µM, a TGI [43] greater than 100 µM and a TGI [44] greater than 100 µM. The TGI [45] was greater than 100 µM, the TGI [47] was greater than 100 µM and the TGI [48] was greater than 100 µM. It also gave a TGI [49] of 66.9 µM, a TGI [50] greater than 100 µM and a TGI [52] greater than 100 µM. The TGI [59] was 89.3 µM, the TGI [53] was 74.2 µM and the TGI [54] was greater than 100 µM. For the same compound, the TGI [55] was greater than 100 µM and the TGI [56] was greater than 100 µM.

Reference: PubChem BioAssay (NCI)
